Measured values published in patent US20250145592A1 (NICO Therapeutics, Inc., priority 2022, published 2025).
Where two headings read alike, the source gives them in different places.

System: IL-1β secretion in THP-1 cells (NLRP3)
Experiment: IL-1β secretion assay in PMA-differentiated THP-1 cells stimulated with LPS and nigericin (ELISA readout)
Format: cell-based
Settings: IL-1β ELISA
Experimental: Compounds as provided herein were tested in the following assay. Cell culture medium employed contained RPMI 1640 medium (89%), FBS (10%), Pen/Strep (1%), and 2-mercaptoethanol (0.05 mM). Freezing medium was made up of 90% FBS and 10% DMSO. THP-1 cells were removed from the liquid nitrogen and placed into a 37° C. water bath to thaw, until signs of ice dissipated. The cells were then added to 9 mL of warm cell culture medium and centrifuged for 5 minutes at 1000 rpm. The supernatant was discarded, and the cells were resuspended in new cell culture medium. THP-1 cells were then split and cultured in the cell culture medium, being passaged every 2-3 days with the cell density will be maintained between 5×10^5 and 1.5×10^6 viable cells/mL.
To freeze, cells were resuspended with fresh freezing medium, adjusting the cell density to 5×10^6 cells/mL. The cell suspension was partitioned into 1 mL aliquots per vial, and the vials were transferred to a −80° C. freezer. After one day at −80° C., the cell vials were transferred to liquid nitrogen freezer for storage.
PMA was dissolved in DMSO to make a stock solution at 5 mg/ml and stored in 10 μl aliquots at −20° C. for single use. PMA is added to normal growth medium. LPS was diluted with 1 mL of water solution to provide a 1 mg/mL stock solution and stored in 15 μl aliquots at −20° C. for single use. Nigericin is diluted in ice cold 100% ethanol to 5 mg/ml (6.7 mM) and stored in 75 μL aliquots at −20° C. for single use. Serum-free media contains RPMI 1640 medium (99%), Pen/Strep (1%), and 2-mercaptoethanol (0.05 mM). The two control conditions used to qualify and normalize test compound dose-response curves were as follows: High Control=25 ng/mL LPS, […], 0.5% DMSO, Low Control=25 ng/mL, LPS, 0.5% DMSO.
THP-1 cells were diluted to provide a suspension at a concentration of 1.0×10^6 cells/mL with the total volume of suspension required to enable the desired number of assay plates. The growth media was supplemented with PMA (5 ng/mL final concentration) and the cells were incubated at 37° C. under a humidified atmosphere of 5% CO2 for 40 h.
All media was carefully aspirated from each culture flask. The cells were washed carefully with 1×DPBS. The cells were then briefly digested with trypsin LE for 5 minutes at 23° C. and immediately resuspended in cell growth media. After resuspension, the cells were centrifuged at 1000 rpm for 3 minutes and the supernatant was discarded. The cells were resuspended in DPBS and once again centrifuged at 1000 rpm for 5 minutes. The supernatant was discarded and the cell pellet was resuspended in serum-free media supplemented with LPS (25 ng/mL final concentration) to enable the distribution of 30K THP-1 cells within 45 μL of media into each well of 384-well PDL-coated plates. The 384-well plates were then incubated at 37° C. under a humidified atmosphere of 5% CO2 for 2 h. Following this period, test compounds were dispensed by Tecan across the desired concentration range with all wells normalized to a final 0.5% DMSO concentration. The plates were then then incubated at 37° C. under a humidified atmosphere of 5% CO2 for 1 h. Following this period, 5 μL of the 5 mg/mL nigericin stock solution was added to each of the appropriate wells and plates were centrifuged at 1000 rpm for 30 seconds. The plates were the immediately reintroduced to the incubator at 37° C. under a humidified atmosphere of 5% CO2 for 2 h. After this time, 35 μL/well of supernatant was collected and transferred into v-bottom plate and centrifuged at 1000 rpm for 1 minute. These supernatant aliquots were analyzed using an IL-Iβ detection kit as described below. If needed, the test samples could be snap frozen and stored at −80° C. until analyzed.
To prepare each ELISA plate, capture antibody (mAb Mt175) was diluted with PBS to a final concentration of […] and then 20 µL of this solution was added to each well of the ELISA plate.
Each plate was allowed to incubate overnight at 4° C. […]

[1] = Homo sapiens, THP-1, Table 3, LPS 25 ng/mL + nigericin, read-out: Activity (IC50 class)
[2] = Homo sapiens, THP-1, Table 4, LPS 25 ng/mL + nigericin, read-out: Activity (IC50)
[3] = Table 3, LPS 25 ng/mL + nigericin, read-out: Activity (IC50 class)
[4] = Table 4, LPS 25 ng/mL + nigericin, read-out: Activity (IC50)

IC50 [1] | IC50 [2] | IC50 [3] | IC50 [4] | SMILES
< 1000 nM | 10 nM |  |  | O=C(Cn1nc(OC2CC3(C2)CC(F)(F)C3)c2cc(Br)ccc2c1=O)Nc1ncc(F)cn1 [Example 1, 2-[6-bromo-4-(2,2-difluorospiro[3.3]heptan-6-yl)oxy-1-oxophthalazin-2-yl]-N-(5-fluoropyrimidin-2-yl)acetamide]
 |  | < 1000 nM | 314 nM | O=C(Cn1nc(OC2CC3(C2)CC3(F)F)c2cc(C3(F)CC3)ccc2c1=O)Nc1ncc(F)cn1 (single isomer, unassigned) [Example 14, 2-[4-(2,2-difluorospiro[2.3]hexan-5-yl)oxy-6-(1-fluorocyclopropyl)-1-oxophthalazin-2-yl]-N-(5-fluoropyrimidin-2-yl)acetamide]
 |  | < 1000 nM | 815 nM | Cc1cnc(NC(=O)Cn2nc(OC3CC4(C3)CC4(F)F)c3cc(Br)ccc3c2=O)nc1 (single isomer, unassigned) [Example 22, 2-[6-bromo-4-(2,2-difluorospiro[2.3]hexan-5-yl)oxy-1-oxophthalazin-2-yl]-N-(5-methylpyrimidin-2-yl)acetamide]
< 1000 nM | 924 nM |  |  | C[C@@H]1CC1Oc1nn(CC(=O)Nc2ncc(F)cn2)c(=O)c2ccc(Br)cc12 (stereo in doubt) [Example 52, 2-[6-bromo-4-[cis-2-methylcyclopropyl]oxy-1-oxophthalazin-2-yl]-N-(5-fluoropyrimidin-2-yl)acetamide]
< 1000 nM | 343 nM |  |  | O=C(Cn1nc(OCC2CC2)c2cc(Br)ccc2c1=O)Nc1ncc(F)cn1 [Example 50, 2-[6-bromo-4-(cyclopropylmethoxy)-1-oxophthalazin-2-yl]-N-(5-fluoropyrimidin-2-yl)acetamide]
< 1000 nM | 235 nM |  |  | O=C(Cn1nc(OC2CC2)c2cc(Br)ccc2c1=O)Nc1nc2ccccn2n1 [Example 27, 2-(6-bromo-4-cyclopropyloxy-1-oxophthalazin-2-yl)-N-([1,2,4]triazolo[1,5-a]pyridin-2-yl)acetamide]
 |  | < 1000 nM | 728 nM | C[C@@H]1CC1Oc1nn(CC(=O)N[C@H]2C[C@@](C)(O)C2)c(=O)c2ccc(Br)cc12 (single isomer, unassigned) [Example 8, 2-[6-bromo-4-[trans-2-methylcyclopropyl]oxy-1-oxophthalazin-2-yl]-N-(cis-3-hydroxy-3-methylcyclobutyl)acetamide]
 |  | < 1000 nM | 35 nM | C[C@@H]1CC1Oc1nn(CC(=O)Nc2ncc(F)cn2)c(=O)c2ccc(Br)cc12 (single isomer, unassigned) [Example 3, 2-[6-bromo-4-[2-trans-methylcyclopropyl]oxy-1-oxophthalazin-2-yl]-N-(5-fluoropyrimidin-2-yl)acetamide]
< 1000 nM | 52 nM |  |  | O=C(Cn1nc(OC2CC3(CC3)C2)c2cc(Br)ccc2c1=O)Nc1ncc(Cl)cn1 [Example 41, 2-(6-bromo-1-oxo-4-spiro[2.3]hexan-5-yloxyphthalazin-2-yl)-N-(5-chloropyrimidin-2-yl)acetamide]
 |  | < 1000 nM | 596 nM | O=C(Cn1nc(OC2CC3(C2)CC3(F)F)c2cc(Br)ccc2c1=O)Nc1nc2ccccn2n1 (single isomer, unassigned) [Example 26, 2-[6-bromo-4-(2,2-difluorospiro[2.3]hexan-5-yl)oxy-1-oxophthalazin-2-yl]-N-([1,2,4]triazolo[1,5-a]pyridin-2-yl)acetamide]
< 1000 nM | 312 nM |  |  | C[C@]1(O)C[C@@H](NC(=O)Cn2nc(OC3CC3)c3cc(Br)ccc3c2=O)C1 [Example 23, 2-(6-bromo-4-cyclopropyloxy-1-oxophthalazin-2-yl)-N-(cis-3-hydroxy-3-methylcyclobutyl)acetamide]
 | 490 nM |  |  | O=C(Cn1nc(OC2C[C@H]2F)c2cc(Br)ccc2c1=O)Nc1ncc(F)cn1 (stereo partly drawn) [Example 54, 2-[6-bromo-4-[2-cis-fluorocyclopropyl]oxy-1-oxophthalazin-2-yl]-N-(5-fluoropyrimidin-2-yl)acetamide]
< 1000 nM | 19 nM |  |  | O=C(Cn1nc(OC2CC3(C2)CC(F)(F)C3)c2cc(C3(F)CC3)ccc2c1=O)Nc1ncc(F)cn1 [Example 15, 2-[4-(2,2-difluorospiro[3.3]heptan-6-yl)oxy-6-(1-fluorocyclopropyl)-1-oxophthalazin-2-yl]-N-(5-fluoropyrimidin-2-yl)acetamide]
< 1000 nM | 137 nM |  |  | C[C@]1(O)C[C@@H](NC(=O)Cn2nc(OC3CC4(C3)CC(F)(F)C4)c3cc(Br)ccc3c2=O)C1 [Example 16, 2-[6-bromo-4-(2,2-difluorospiro[3.3]heptan-6-yl)oxy-1-oxophthalazin-2-yl]-N-(cis-3-hydroxy-3-methylcyclobutyl)acetamide]
< 1000 nM | 21 nM |  |  | O=C(Cn1nc(OC2CC2)c2cc(I)ccc2c1=O)Nc1ncc(F)cn1 [Example 28, 2-(4-cyclopropyloxy-6-iodo-1-oxophthalazin-2-yl)-N-(5-fluoropyrimidin-2-yl)acetamide]
< 1000 nM | 912 nM |  |  | O=C(Cn1nc(O[C@H]2C[C@H](F)C2)c2cc(Br)ccc2c1=O)Nc1ncc(F)cn1 [Example 45, 2-[6-bromo-4-(trans-3-fluorocyclobutyl)oxy-1-oxophthalazin-2-yl]-N-(5-fluoropyrimidin-2-yl)acetamide]
< 1000 nM | 136 nM |  |  | COc1nn(CC(=O)Nc2ncc(F)cn2)c(=O)c2ccc(C3(F)CC3)cc12 [Example 11, 2-[6-(1-fluorocyclopropyl)-4-methoxy-1-oxophthalazin-2-yl]-N-(5-fluoropyrimidin-2-yl)acetamide]
< 1000 nM | 17 nM |  |  | O=C(Cn1nc(OC2CC3(CCC3)C2)c2cc(Br)ccc2c1=O)Nc1ncc(F)cn1 [Example 40, 2-(6-bromo-1-oxo-4-spiro[3.3]heptan-2-yloxyphthalazin-2-yl)-N-(5-fluoropyrimidin-2-yl)acetamide]
< 1000 nM |  |  | 179 nM | C[C@]1(O)C[C@@H](NC(=O)Cn2nc(OC3CC4(C3)CC4(F)F)c3cc(Br)ccc3c2=O)C1 (single isomer, unassigned) [Example 19, 2-[6-bromo-4-(2,2-difluorospiro[2.3]hexan-5-yl)oxy-1-oxophthalazin-2-yl]-N-(cis-3-hydroxy-3-methylcyclobutyl)acetamide]
< 1000 nM | 625 nM |  |  | COc1nn(CC(=O)Nc2ncc(F)cn2)c(=O)c2ccc(C3CC3)c(OC)c12 [Example 33, 2-(6-cyclopropyl-4,5-dimethoxy-1-oxophthalazin-2-yl)-N-(5-fluoropyrimidin-2-yl)acetamide]
1000 to 10000 nM | 1400 nM |  |  | O=C(Cn1nc(OCCF)c2cc(Br)ccc2c1=O)Nc1ncc(F)cn1 [Example 47, 2-[6-bromo-4-(2-fluoroethoxy)-1-oxophthalazin-2-yl]-N-(5-fluoropyrimidin-2-yl)acetamide]
 |  | < 1000 nM | 308 nM | O=C(Cn1nc(OC2CC3(C2)CC3(F)F)c2cc(Br)ccc2c1=O)Nc1ncc(F)cn1 (single isomer, unassigned) [Example 6, 2-[6-bromo-4-(2,2-difluorospiro[2.3]hexan-5-yl)oxy-1-oxophthalazin-2-yl]-N-(5-fluoropyrimidin-2-yl)acetamide]
